Legend:
Assay type in all cases: cell-based
IL-1ra = IL-1ra secretion from purified human monocytes; design: key: NE: No effect; INHIB: Inhibition; STIM: Stimulation; IC40: 40% Inhibitory Concentration; EC50: 50% Effective Concentration; TC: Tolerated Concentration; IA: Interferes with Assay
Protocol: This assay determines the effect of test compounds on the secretion of IL-1ra from purified human monocytes. Compounds are tested for their ability to downregulate or upregulate the production of IL-1ra in unstimulated monocytes and in activated monocytes. Test compounds are incubated for sixteen hours with purified human monocytes at four dilutions over a range of three log10 concentrations. Where appropriate, lipopolysaccharide (LPS) is used to stimulate the monocytes.
The level of IL-1ra in the resultant supernatants is quantitated in a solid phase Enzyme-linked Immunoassay (EIA) performed in a 96 well format. IL-1ra present in the samples is captured by a specific monoclonal antibody immobilized on the well, and probed with an anti-IL-1ra polyclonal antibody. A second antibody conjugated to horseradish peroxidase is then added, followed by an appropriate substrate. The levels of IL-1ra are determined by interpolation of the resultant color change in the substrate from a standard curve. […]
This assay determines the effect of test compounds on the secretion of IL-1ra from purified human monocytes. […] The level of IL-1ra in the resultant supernatants is quantitated in a solid phase Enzyme-linked Immunoassay (EIA) performed in a 96 well format. […] The levels of IL-1ra are determined by interpolation of the resultant color change in the substrate from a standard curve. […]

IL-8 = IL-8 secretion from purified human monocytes; design: key: NE: No effect; INHIB: Inhibition; STIM: Stimulation; IC40: 40% Inhibitory Concentration; EC50: 50% Effective Concentration; TC: Tolerated Concentration; IA: Interferes with Assay
Protocol: (§1) This assay determines the effect of test compounds on the secretion of IL-8 from purified human monocytes. Compounds are tested for their ability to downregulate the production of IL-8 in activated monocytes, or upregulate secretion of IL-8 in unstimulated monocytes. Test compounds are incubated for sixteen hours with purified human monocytes at four dilutions over a range of three log10 concentrations. Where appropriate, lipopolysaccharide (LPS) is used to stimulate the monocytes.
(§2) The level of IL-8 in the resultant supernatants is quantitated in a solid phase Enzyme-linked Immunoassay (EIA) performed in a 96 well format. IL-8 present in the samples is captured by a specific monoclonal antibody immobilized on the well, and probed with an anti-IL-8 polyclonal antibody conjugated to horseradish peroxidase, followed by an appropriate substrate. The levels of IL-8 are determined by interpolation of the resultant color change in the substrate from a standard curve. All supernatants are tested in duplicate with controls and standards.

GM-CSF = GM-CSF expression from purified human monocytes; design: key: NE: No effect; INHIB: Inhibition; STIM: Stimulation; IC40: 40% Inhibitory Concentration; EC50: 50% Effective Concentration; TC: Tolerated Concentration; IA: Interferes with Assay
Protocol: as §1, with “the expression” for “the secretion”, “of GM-CSF” for “of IL-8”
as §2, with “level of GM-CSF in the” for “level of IL-8 in the”, “well format. GM-CSF present in” for “well format. IL-8 present in”, “with an anti-GM-CSF polyclonal antibody” for “with an anti-IL-8 polyclonal antibody”, “levels of GM- CSF are determined” for “levels of IL-8 are determined”

PGE2 = PGE2 production by purified human monocytes; design: key to EFFECT on PGE2: NE: No effect; INHIB: Inhibition; STIM: Stimulation; IC40: 40% Inhibitory Concentration; EC50: 50% Effective Concentration; TC: Tolerated Concentration; IA: Interferes with Assay
Protocol: This procedure measures the ability of test compounds to modulate the amount of PGE2 produced by purified human monocytes. Compounds are tested for their ability to downregulate the secretion of PGE2 from activated monocytes, or upregulate secretion of PGE2 from unstimulated monocytes. Test compounds are incubated for ninety minutes with purified human monocytes at four dilutions over a range of three log10 concentrations. Where appropriate, zymosan is used to stimulate the monocytes.
The level of PGE2 in the resultant supernatants is quantitated by immunoassay performed in a 96 well format. PGE2 levels modulated by unknown compounds are determined by interpolation from a standard curve. All compounds are tested in duplicate with controls and standards.

phospholipase A2 = assay: Cellular phospholipase A2 activity in human monocytes; design: key: NE: No effect; INHIB: Inhibition; STIM: Stimulation; IC40: 40% Inhibitory Concentration; EC50: 50% Effective Concentration; TC: Tolerated Concentration; IA: Interferes with Assay
Protocol: This assay measures the ability of test compounds to modulate the activity of the cellular phospholipase A2 in human monocytes. Compounds are tested for their ability to inhibit stimulate phospholipase A2 activity or activate basal activity in unstimulated monocytes. Test compounds are incubated for ninety minutes with purified human monocytes at four dilutions over a range of three log10 concentrations. Where appropriate, zymosan is used to stimulate the monocytes.
Monocytes with the arachidonyl moiety of phospholipids radiolabelled are utilized in a 96 well format. Percent release of radiolabelled fatty acid into the extracellular medium is quantified by liquid scintillation counting. All compounds are tested in duplicate with controls and standards.

MTS = conditions: human, monocytes; read-out: TC (Tolerated Concentration), MTS

CCCCCCCCCCCCCC/C=C\CC[C@@H]1OC(=O)C(O)=C1O [(S)-3,4-Dihydroxy-5-[(Z)-3-octadecenyl]-2(5H)-furanone]
EFFECT on IL1ra (IL-1ra; STIMULATED): NE | EFFECT on IL1ra (IL-1ra; UNSTIMULATED): NE | EFFECT on IL8 (IL-8; STIMULATED): NE | EFFECT on IL8 (IL-8; UNSTIMULATED): NE | EFFECT on GMCSF (GM-CSF; STIMULATED): NE | EFFECT on GMCSF (GM-CSF; UNSTIMULATED): NE | EC50 (PGE2; Homo sapiens, Monocyte, STIMULATED, INHIB): 2000 nM | EFFECT on PGE2 (PGE2; STIMULATED): INHIB | EFFECT on PGE2 (PGE2; UNSTIMULATED): NE | EFFECT on PLA2 (phospholipase A2; STIMULATED): NE | EFFECT on PLA2 (phospholipase A2; UNSTIMULATED): NE | MNTC (MTS): 50 µM

Source: US5656662A, “Synthesis of optically pure 4-alkenyl- or 4-alkanyl-2-hydroxytetronic acids” (The Ohio State University Research Foundation, priority 1995, dated 1997)
